From patent US10273208B2, “Screening methods for the binding affinity of chemical entities to biological molecules and NEDD4-1 inhibitors identified by the screening methods” (Northwestern University, priority 2014, dated 2019) come the findings set out here.

One assay deals with T1, NEDD4-1 HECT domain (Homo sapiens, UniProt P46934).
T1 construct: to elute NEDD4-1 HECT domain (50 mM HEPES, 150 mM NaCl, 0.1 mM EDTA 1 mM DTT); GST (N, cleaved yes); made in house; host or cells: E. coli BL21
T1 sequence (P46934 with tags, fused parts or gaps): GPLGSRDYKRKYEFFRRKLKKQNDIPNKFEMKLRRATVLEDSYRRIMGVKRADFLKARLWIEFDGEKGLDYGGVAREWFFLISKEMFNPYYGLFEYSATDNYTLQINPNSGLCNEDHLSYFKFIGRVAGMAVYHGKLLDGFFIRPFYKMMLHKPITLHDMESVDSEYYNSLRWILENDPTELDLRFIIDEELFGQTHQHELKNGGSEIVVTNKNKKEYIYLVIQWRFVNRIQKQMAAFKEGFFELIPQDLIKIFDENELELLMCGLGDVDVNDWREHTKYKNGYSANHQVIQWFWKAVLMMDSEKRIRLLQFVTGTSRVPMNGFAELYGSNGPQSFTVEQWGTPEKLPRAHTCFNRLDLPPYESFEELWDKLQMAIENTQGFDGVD
Nature of the assay: In vitro ubiquitination assays. To be noted: NEDD4-1 HECT pretreated with 1 mM compound for 3 h, quenched after 5 min. The format is biochemical. The procedure: FIG. 15A, FIG. 15B and FIG. 15C. (FIG. 15A) Enzymatic assay with compounds 1, 2, and 4. NEDD4-1 HECT domain was pretreated with 1% DMSO (lane 1), or 1 mM of compounds 1 (lane 2), 2 (lane 3), or 4 (lane 4) for 3 h before beginning the assay. The reaction mixtures were quenched after 5 min, and polyubiquitin chains were detected by Western blot with anti-ubiquitin antibody. (FIG. 15B) Cartoon depiction of the crystal structure of NEDD4-1:1 with key side chains and the inhibitor shown as spheres. (FIG. 15C) Close-up view of the inhibitor-binding site with the key side chains depicted as sticks and colored by atom type. The 2FO-FC electron density map (mesh, contoured at 1.0 σ) is presented for Cys^627 and 1.
FIG. 16A, FIG. 16B, FIG. 16C and FIG. 16D. (FIG. 16A) and (FIG. 16B) Compound 6 disrupts the NEDD4-1:Ub interaction as shown by a fluorescence polarization assay. Mean±s.e.m., n=3. (FIG. 16C) Compound 6 inhibits the ability of NEDD4-1 to polyubiquitinate the Wbp2-C-K222 protein substrate. NEDD4-1 was pretreated with 1% DMSO (lane 1), or 100 μM of compound 6 (lane 2) or compound 4 (lane 3) for 1.5 h before beginning the assay. Reaction mixtures were quenched at the indicated times and the amount of ubiquitinated Wbp2-C-K222 was determined using in-gel fluorescence. (FIG. 16D) Quantification of polyubiquitin chains in FIG. 16B. Mean±s.e.m., n=2. […]

Assay [1] is described as follows: NMR rate studies: pseudo-first order reaction with N-acetylcysteine methyl ester. The format is physicochemical. Conditions: electrophile 10 mM, N-acetyl cysteine methyl ester 78 mM, 2:1 deuterated PBS:DMSO-d6, pD 8, NMR. From the text:
We further validated the utility of electrophile 3 as a thiol-reactive tether by making a library of one hundred structurally diverse drug-like fragments 6-105 containing this electrophile. The library was constructed with an HBTU amide coupling with commercially available carboxylic acid fragments (FIG. 2A). The acids were selected with “rule of three” criteria^15 and a subsequent diversity analysis. We measured the reaction rates for the first fifty fragments to confirm that this library would have balanced cysteine reactivity and could be used for irreversible tethering (FIG. 2B).
N-Acetyl cysteine methyl ester was dissolved in 2:1 deuterated PBS:DMSO-d6 (78 mM) with 10 mM CH2Cl2 as an internal standard. The electrophile (10 mM) was then added immediately prior to acquiring spectra. H1 spectra were taken every 30 s for 30 min (or every 4 s for 5 min for highly reactive compounds 1c and 2a-c). The integrals of the vinyl peaks were used to determine the concentration of the electrophile over time. The natural logarithm of the concentration of the electrophile versus time was then plotted using GraphPad Prism software. The linear slope of this plot was used to determine the pseudofirst order rate constant. Deuterated PBS recipe: 20 mM Na3PO4, 50 mM NaCl in D2O was adjusted to pD 8 with DC1 solution.

The target in assay [2] is T2, papain (Carica papaya, UniProt P00784).
T2 construct: purchased Sigma P4762
T2 sequence (P00784 134-345): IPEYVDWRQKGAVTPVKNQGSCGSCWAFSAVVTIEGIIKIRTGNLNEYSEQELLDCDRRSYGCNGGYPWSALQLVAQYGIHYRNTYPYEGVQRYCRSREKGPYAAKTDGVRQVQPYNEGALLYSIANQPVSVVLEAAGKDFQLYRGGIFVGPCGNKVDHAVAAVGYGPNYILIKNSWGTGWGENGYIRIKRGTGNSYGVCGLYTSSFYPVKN
The experiment in a line: Irreversible tethering screening assay (whole protein ESI-MS) against papain. Type of assay: binding. The procedure:
Papain (10 μM) was incubated for one hour with ten reaction mixtures that each contained ten electrophilic fragments (100 μM each) (Table S2).
Hits were defined as any compounds which labeled papain more than 50%. […] Such selectivity is impressive, given a 9-fold excess of other cysteine reactive electrophiles over compounds 6, 7, and 8. […] This is despite the fact that these reaction mixtures contain a 100-fold excess of cysteine reactive electrophiles relative to the highly reactive catalytic cysteine of papain. […]
10 μM of papain (Sigma P4762), UbcH7 (recombinantly expressed) or USPO8 (recombinantly expressed) in 50 mM HEPES 150 mM NaCl 0.1 mM EDTA pH 7.5 was treated with a mixture of ten fragments (Table S2) (10 mM DMSO stock solutions, final concentrations: 100 μM of each fragment, and 1% DMSO). […] The protein solution was then immediately analyzed by whole protein LC/ESI-MS. […]
200 μL of papain and compound 6-8 adducts were prepared separately as described above in “irreversible tethering screening assay” by incubating papain (10 μM) with 100 μM of compounds 6-8 in 1% DMSO 50 mM HEPES 150 mM NaCl 0.1 mM EDTA pH 7.5. […] The cassettes were dialyzed against 500 mL of 50 mM HEPES 150 Mm NaCl 0.1 mM EDTA pH 7.5 for 16 h, then 20 μL were extracted and analyzed by ESI-MS. […]

In assay [3] the target is T2, papain. Nature of the assay: Papain activity assay (Cbz-Gly-ONp, kinact/KI). Type of assay: biochemical. The procedure:
We subsequently tested compounds 6-8 in an enzymatic assay to confirm that they inhibited papain in the concentration and time dependent manner that is characteristic of irreversible inhibitors.^18 Using assay conditions previously described for papain,^17 we determined kinact/K1 values for compounds 6-8 (FIGS. 4 and 10).
Papain (4.8 μM) in 50 mM Na3PO4 2 mM EDTA was preactivated with 1 mM DTT for 30 min. Activated papain (3.84 μM) in 4:1 mixture of 50 mM Na3PO4, 2 mM EDTA at pH 6.2 and acetronitrile was then preincubated for 1 h with varying concentrations of the electrophilic fragment. Every 10 min, 10 μL of the reaction mixture was added to a well of 96-well plate containing 100 μL of 4:1 50 mM Na3PO4 2 mM EDTA pH 6.2:acetronitrile with 400 μM Cbz-Gly-ONp. p-Nitrophenol product formation was monitored by absorbance at 340 nm (£: 6800 M-1 cm-1) with a Biotek Synergy 4 plate reader. All reactions were performed in duplicate. Product concentration versus time was plotted with GraphPad Prism software and the initial slope was calculated to determine enzymatic activity (E). The values of kinact/KI for each inhibitor were then determined according to the method of Kitz and Wilson.23 Briefly, the slopes of the plots of ln(100*Einhibited/Euninhibited) vs. time were used to determine the pseudo-first order inhibition constant kobs for a given concentration of a given inhibitor. […]

Assay [4] has as its target T3, human rhinovirus 3C protease (GST-HRV3C, PreScission protease) (Human rhinovirus 14, UniProt P03303).
T3 construct: made in house; host or cells: E. coli Rosetta (DE3)pLysS
The experiment in a line: Irreversible tethering counter-screen (ESI-MS) against HRV3C protease. Type of assay: binding. Conditions: mixtures of ten fragments 100 μM each, 1 h. The procedure:
FIG. 28A, FIG. 28B, FIG. 28C and FIG. 28D. Counterscreen of compound 6 against the deubiquitinase USPO8 and Human Rhinovirus (HRV) 3C protease, both of which have catalytic cysteines. Compound 6 at 100 μM in 1% DMSO was incubated with the catalytic domain of the indicated cysteine protease (10 μM) for 1 h, followed by gel filtration and whole protein ESI-MS.
To further test the specificity of the developed irreversible tethering system, we conducted a counter-screen of the same set of 100 compounds (10 mixtures of 10 compounds each) against three other enzymes: human rhinovirus 3C protease, the deubiquitinase USP08, and the E2 ubiquitin-conjugating enzyme UbcH7. […] The molecular weight of GST-HRV3C protease is 47566.72 Da and its amino acid sequence is provided as (SEQ ID NO:2).
10 μM of papain (Sigma P4762), UbcH7 (recombinantly expressed) or USPO8 (recombinantly expressed) in 50 mM HEPES 150 mM NaCl 0.1 mM EDTA pH 7.5 was treated with a mixture of ten fragments (Table S2) (10 mM DMSO stock solutions, final concentrations: 100 μM of each fragment, and 1% DMSO). The reaction mixture was incubated for 1 h or 4 h at 23° C. before being passed through Zeba gel filtration columns (Thermo, 7K MWCO) to remove unreacted fragments. The protein solution was then immediately analyzed by whole protein LC/ESI-MS.
Accurate-mass data were obtained on an Agilent 6210A LC-TOF mass spectrometer in positive ion mode using electrospray ionization. Samples were chromatographed on the LC-TOF instrument using a Poroshell 120 EC-C18 HPLC column (2.1*50 mm, 2.7 micron), an Agilent Series 1200 HPLC binary pump, and an Agilent Series 1200 autoinjector. The HPLC column was held at 45° C. and the autosampler was held at 8° C. Mobile Phase A was a solution of 0.1% formic acid in water:acetonitrile (19:1). Mobile Phase B was a solution of 0.1% formic acid in acetonitrile. The flow rate was set to 250 μL/min. The gradient used was 0% B for 2 minutes, ramping linearly to 90% B from 2 minutes to 5 minutes, holding at 90% B from 5 minutes to 7 minutes, and then returning to 0% B at 7.1 minutes. […]
For orientation: Counterscreens check selectivity or assay interference.

T3 sequence (P03303 1538-1719, added parts left off): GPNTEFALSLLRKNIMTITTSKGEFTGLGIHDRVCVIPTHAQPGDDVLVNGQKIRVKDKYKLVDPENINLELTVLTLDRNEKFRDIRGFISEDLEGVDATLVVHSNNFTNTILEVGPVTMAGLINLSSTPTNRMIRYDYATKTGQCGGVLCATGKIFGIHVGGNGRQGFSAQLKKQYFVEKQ

As to `COC(=O)/C=C/CNC(=O)c1c[nH]nc1-c1cccc(F)c1` [Compound 4, Methyl(E)-4-(3-(3-fluorophenyl)-1H-pyrazole-4-carboxamido)but-2-enoate], at NEDD4-1 HECT domain, the “polyubiquitin chain assembly by NEDD4-1 (anti-ubiquitin Western blot)” value is reported as “did not affect NEDD4-1 activity”.

With `COC(=O)/C=C/CNC(=O)c1ccc(C2CCCO2)s1` (centres unmarked) [Compound 19], the k pseudo-first order in assay [1] came out at 0.0004396 s⁻¹. The “covalent labeling of papain” value on papain [2] (papain 10 μM, mixtures of ten fragments 100 μM each, 1 h, hit = labeled papain more than 50%) was “did not label papain”. At papain [3], the “fold less potent at inhibiting papain than the least potent inhibitor 6” value was roughly 10 fold and the “fold less potent at inhibiting papain than the most potent inhibitor 7” value is recorded as roughly 33 fold.

In assay [1], `COC(=O)/C=C/CNC(=O)c1csc(-c2cccs2)n1` [Compound 22] yielded a k pseudo-first order of 0.0007605 s⁻¹. Also, the “labeling of HRV3C protease” value in assay [4] is roughly 35%.

Regarding `COC(=O)/C=C/CNC(=O)c1ccc2ccccc2n1` [Compound 32], in assay [1], the k pseudo-first order worked out at 0.0006296 s⁻¹. Also, the “labeling of HRV3C protease” value in assay [4] was roughly 20%.

Consider `COC(=O)/C=C/CNC(=O)c1cc2cc(Cl)cc(OC)c2o1` [Compound 98], for which, in assay [4], the “labeling of HRV3C protease” value is recorded as roughly 20%.

With `COC(=O)/C=C/CNC(=O)[C@H](Cc1ccccc1)NC(C)=O` [Compound 106, reference compound], the “effect of pretreatment of papain on subsequent labeling by compounds 6-8” value at papain [2] (100 μM 106 for 1 h, then 100 μM of 6, 7 or 8) was “blocked subsequent labeling by compounds 6-8”.
